Consider one compound from patent publication US20200315996A1 (Board of Trustees, Southern Illinois University, priority 2016, published 2020).

One series deals with apoptosis. Kind of series: TUNEL assay of endometriotic lesions. In kind it is in vivo, mice. The conditions noted are these: 3 weeks, control 8.7 ± 1.3. The protocol: The TUNEL assay is another immunohistological method used to show the amount of apoptosis, or programmed cell death, present in the uterine tissues. The TUNEL assay was performed on sections of uterine tissue according to manufacturer's instructions using ApopTag Fluorescein In Situ Apoptosis Detection Kit (# S7160, Millipore). The TUNEL assay, which identifies cells undergoing apoptosis, was semiquantitatively analyzed using areas of 0.02 mm^2 (3 different areas counted from each section, with sections obtained from 4 different lesions), and semiquantitatively analyzed.

For another series, the system named is female mice. Kind of series: Effect of oral niclosamide on reproductive function (Study 2). In kind it is in vivo. On the procedure: The sham surgery was performed following the same steps as the endometriosis surgery except that no donor tissues were implanted onto the peritoneal walls of those mice; only sutures were applied to the peritoneal walls.
The recipient mice continued receiving oral daily niclosamide treatments until mouse pups were born, after which niclosamide treatment was discontinued. Three weeks after the pups were born, on postnatal day (PND) 21, the recipient mice were necropsied and the pups were weaned.
For each mated mouse, the following parameters were measured and recorded: the time of the formation of the vaginal plug after mating (days); the length of time that the mated mouse gestated or was pregnant (days); the number of pups born to each mated mouse; and the size and volume of the endometriotic lesions harvested from the mice after necropsy. Tissues were harvested from the mice, including endometriotic lesions and peritoneal walls to analyze the expression of proteins and genes of interest.
For each pup born to a mated mouse, its weight (g) at birth and on PND 21 was measured.

A further series deals with endometriotic lesions. Kind of series: Endometriotic lesions examined on PND 21 (Study 2). The conditions noted are these: 200 mg/kg b.w./day; examined 3 weeks after the final dosage. In kind it is in vivo, mice. On the procedure: The sham surgery was performed following the same steps as the endometriosis surgery except that no donor tissues were implanted onto the peritoneal walls of those mice; only sutures were applied to the peritoneal walls. […] The recipient mice continued receiving oral daily niclosamide treatments until mouse pups were born, after which niclosamide treatment was discontinued. Three weeks after the pups were born, on postnatal day (PND) 21, the recipient mice were necropsied and the pups were weaned. For each mated mouse, the following parameters were measured and recorded: the time of the formation of the vaginal plug after mating (days); the length of time that the mated mouse gestated or was pregnant (days); the number of pups born to each mated mouse; and the size and volume of the endometriotic lesions harvested from the mice after necropsy. Tissues were harvested from the mice, including endometriotic lesions and peritoneal walls to analyze the expression of proteins and genes of interest.

Structures are written as SMILES.

`O=C(Nc1ccc([N+](=O)[O-])cc1Cl)c1cc(Cl)ccc1O` [niclosamide, 5-chloro-N-(2-chloro-4-nitrophenyl)-2-hydroxybenzamide]: the “Cell number of TUNEL positive cells/0.02 mm^2” value is on record as 8.2 ± 1.3 cells/0.02 mm^2 in the series on apoptosis (100 mg/kg b.w./day oral) and 7.8 ± 1.0 cells/0.02 mm^2 in the series with apoptosis (200 mg/kg b.w./day oral). In the series on female mice (0 or 200 mg/kg b.w./day oral, mated after 4 days of treatment), the “time to receive vaginal plug, between the groups” value is “No significant differences”. Further, in the series with female mice (200 mg/kg b.w./day oral until pups were born), the “pregnancy and birth in recipient mice exposed to niclosamide” value was “became pregnant and gave birth”. Besides, the “gestational length, number of pups, and weight of pups at birth and on PND21” value in the series on female mice (200 mg/kg b.w./day oral until pups were born vs 0) was “did not cause any differences”. Also, the “lesion sizes on PND 21” value in the series with endometriotic lesions is on record as “maintained the reduction of lesion sizes”.
